{"source": "ChEMBL document CHEMBL1151055", "about": "“A comparative SAR and computer modeling study of benzisothiazolone, mechanism-based inhibitors with porcine pancreatic and human leukocyte elastase” (Bioorg Med Chem Lett, 1996)", "key": {"[1]": {"target": "T1, Neutrophil elastase (Homo sapiens) (UniProt P08246)", "T1 sequence (whole entry)": "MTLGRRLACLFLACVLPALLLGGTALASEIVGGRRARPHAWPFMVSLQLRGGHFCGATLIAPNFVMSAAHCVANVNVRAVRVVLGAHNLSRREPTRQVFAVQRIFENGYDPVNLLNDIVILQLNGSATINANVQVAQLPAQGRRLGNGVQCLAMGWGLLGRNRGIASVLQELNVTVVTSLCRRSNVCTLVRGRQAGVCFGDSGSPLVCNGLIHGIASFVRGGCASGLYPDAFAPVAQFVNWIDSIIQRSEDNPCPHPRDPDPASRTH", "assay": "Irreversible inhibitory activity against human leukocyte elastase"}, "[2]": {"target": "T2, Chymotrypsin-like elastase family member 2A (Sus scrofa) (UniProt P08419)", "T2 sequence (whole entry)": "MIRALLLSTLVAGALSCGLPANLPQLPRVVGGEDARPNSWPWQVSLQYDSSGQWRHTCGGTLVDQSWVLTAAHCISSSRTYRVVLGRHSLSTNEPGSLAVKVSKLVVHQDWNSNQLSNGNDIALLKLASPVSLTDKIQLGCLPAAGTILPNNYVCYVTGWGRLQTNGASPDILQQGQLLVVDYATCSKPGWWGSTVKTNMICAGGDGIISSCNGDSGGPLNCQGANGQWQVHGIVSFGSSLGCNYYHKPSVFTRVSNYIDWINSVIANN", "assay": "Irreversible inhibitory activity against porcine pancreatic elastase"}}, "data": [{"compound": "COC(=O)CCC(=O)N[C@@H](C)C(=O)N[C@@H](C)C(=O)N1CCC[C@@H]1C(=O)N[C@H](C(=O)CCl)C(C)C", "values": [{"measurement": "k on", "setting": "[1]", "result": 3150, "unit": "M⁻¹ s⁻¹"}, {"measurement": "k on", "setting": "[2]", "result": 830, "unit": "M⁻¹ s⁻¹"}]}]}
